The results in this text go back to a melting point compilation (Tetko et al.; mined from patent text by program, amines drawn as free bases though some values may be those of a salt).

On to `Cc1ccc2c(c1)C1(COc3cc4c(cc31)OCO4)C(=O)N2Cc1ccc(C(F)(F)F)o1` (stereo not drawn), for which the melting point was 96 to 98 °C.

In turn, `COc1ccc2c(c1)CN(CCc1ccc([N+](=O)[O-])cc1)CC2` had a melting point of 92 to 94 °C.

Molecule `CC(C)c1ccc2[nH]c(=O)c(C(=O)c3ccccc3)c(O)c2c1` registered a melting point of 270 °C.

Regarding `CCCN(CCC)C(=O)CNc1nc(-c2ccccc2)nc(C)c1C`, the melting point lay within 79 to 80 °C.

In turn, `Cc1cccc(O[C@@H]2CN(Cc3ccccc3)C[C@H]2O)c1C` (relative stereo) yielded a melting point of 100 to 104 °C.

Turning to `CC12CCC(=O)C=C1CCC1C2=CCC2(C)C(C#N)=CCC12` (stereo not drawn), the melting point lay within 148 to 150 °C.

`CC(C)(C)c1ccc(C(O)CCCCN2CCC(=C3c4ccccc4CCc4ccccc43)CC2)cc1` (stereo not drawn): the melting point lay within 157 to 158 °C.

Molecule `C=C(C)COc1ccc(C(=O)C=Cc2c(Cl)cccc2Cl)c2oc3ccccc3c(=O)c12` registered a melting point of 135 to 137 °C.

With `CC(=O)OC1CC2=CCC3C4CCC(C(C)CCC=C(C)C)C4(C)CCC3C2(C)C(OC(C)=O)C1` (stereo not drawn), the melting point is 133 to 134 °C.

`COC(=O)c1cc(Cl)ccc1NC(=O)c1cc(OC)c(OC)c(OC)c1` had a melting point of 179 to 180 °C.

In turn, `COc1ccc(-c2cc(C(F)F)nn2-c2ccc(S(N)(=O)=O)c(F)c2)cc1F` came in with a melting point of 167 to 169 °C.

`O=c1[nH]cnc2c1ncn2CCO` registered a melting point of 274 °C.

As to `NS(=O)(=O)c1ccc(-c2cnn(CC(F)=C(F)F)c(=O)c2-c2ccc(F)cc2)cc1`, the melting point is 173 to 175 °C.

As to `O=C1COCCN1c1ccc(NC[C@H](O)CCl)cc1`, the melting point fell in the range of 138 to 139 °C.

For `CCCCOC(=O)CS(=O)(=O)CC=C1SC=CS1`, the melting point fell in the range of 99 to 100 °C.

In the case of `CN(Cc1cc2c(=O)c(C(=O)NCc3ccc(Cl)cc3)cn(C)c2s1)CC(O)c1ccc(O)cc1` (stereo not drawn), the melting point is 134 to 143 °C.

`COc1ccc(CCCCNC(=O)C(F)(F)F)cc1S(N)(=O)=O` gave a melting point of 145 to 147 °C.

`Cc1c(N2CCC(C3(N)CCC3)C2)c(F)cc2c(=O)c(C(=O)O)cn([C@@H]3C[C@@H]3F)c12` (stereo partly drawn) gave a melting point of 140 to 143 °C.

For the molecule `CN(Cc1cc(C(F)(F)F)cc(C(F)(F)F)c1)C(=O)c1cnc(CC#N)nc1-c1ccccc1`, the melting point was 114 to 116 °C.

`CC(C)C(=O)c1cn(Cc2c(F)cccc2F)c2sc(-c3ccc(NC(=O)C(C)(C)O)cc3)c(CN(C)Cc3ccccc3)c2c1=O` gave a melting point of 178 to 180 °C.

`CCCC=Cc1c(C(C)C)nc(C(C)C)c(CO)c1-c1ccc(F)cc1F` came in with a melting point of 59 to 62 °C.

`CC(Oc1ccccc1-c1ccc(Cl)c(C(=O)NCC23CC4CC(CC(C4)C2)C3)c1)C(=O)O` (stereo not drawn): the melting point lay in the range of 107 to 110 °C.

`CC(=O)c1cc(Oc2ccccc2)c(NS(C)(=O)=O)cc1O` registered a melting point of 151 to 153 °C.

As to `CC(Cl)(Cl)C(NC(=O)c1ccc(Cl)cc1)NC(=NC#N)Nc1cccnc1Cl` (stereo not drawn), the melting point was 135 to 137 °C.

In turn, `CON=C1c2ccccc2-c2c(N3CCNCC3)nc3ccccc3c21` came in with a melting point of 149 to 150 °C.

As for `CC(C)(C)[PH](=O)Cc1ccccc1` (stereo not drawn), the melting point lay within 80 to 82 °C.

`CCOC(=O)c1cn(Cc2ccccc2)nc1OCc1ccc(OCc2nc(-c3ccco3)oc2C)nc1` displayed a melting point of 140 to 141 °C.

In the case of `Cc1nc(-c2ccc3c(c2)c2cc(-c4ccc(Cl)cc4Cl)c(=O)n(C)c2n3C)co1`, the melting point was in the range of 222 to 223 °C.

`O=C1COc2cc(F)c(F)cc2N1` yielded a melting point of 214 to 219 °C.

The molecule `CCOC(=O)c1nn(-c2ccc(F)cc2)c2c1CCCC2` showed a melting point of 100 to 101 °C.

In the case of `CCOc1ccc2nc(N3CCN(c4nc(N)c5cc(OC)c(OC)cc5n4)CC3)nc-2cc1`, the melting point is > 250 °C.

With `C[C@@H]1Cc2ccsc2[C@H](C)N1CCNC(=O)c1ccc(NC(=O)C(C)(C)C)cc1` (relative stereo), the melting point is 133 °C.

Molecule `O=P1(c2ccc(C(F)(F)F)cc2)c2ccccc2CN1c1ccccc1` (stereo not drawn) registered a melting point of 187 to 189 °C.

In turn, `O[C@@H]1CN(C[C@H](O)c2ccccc2)CC[C@H]1CCOC(c1ccccc1)c1ccccc1` returned a melting point of 84 to 86 °C.

In turn, `Cc1cc(C=C2CCCC(=Cc3cc(C)c(O)c(C)c3)C2=O)cc(C)c1O` displayed a melting point of 225 to 226 °C.

As for `Cc1cc(Br)cc(C=NO)c1`, the melting point was 128 to 129 °C.

In the case of `CCC1(C)OC(=O)C(c2ccccc2)C(=O)O1` (stereo not drawn), the melting point fell in the range of 135 to 136 °C.

Take `Fc1ccc(C2CC(n3ccnc3)c3ccccc3N2)cc1` (stereo not drawn): the melting point lay in the range of 168 to 170 °C.

Molecule `Cc1ccc(-c2cc(C(=O)/C=C/c3ccc(C(=O)O)cc3)cc3c2C(C)(C)CCC3(C)C)cc1` returned a melting point of 242 °C.

The molecule `CCCCc1nc(Cl)c(CNC(=O)OCC)n1Cc1ccc(-c2ccccc2C(=O)O)cc1` showed a melting point of 144 to 147 °C.

In the case of `CC1OC(=O)N(c2nc(-c3ccc(C#N)cc3)cs2)C1(C)C` (stereo not drawn), the melting point fell in the range of 166 to 167 °C.

In the case of `CN1CCN(c2cccc3c2C[C@H](NC(=O)c2csc(-c4ccncc4)n2)CC3)CC1`, the melting point was 187 to 188 °C.

`CCOC(=O)[C@@H]1C[C@H]1Sc1nc2ccccc2cc1-c1ccccc1` (relative stereo) displayed a melting point of 94 to 94.5 °C.

Turning to `FC(F)(F)c1cccc(N2CCC(N=Cc3ccccn3)=N2)c1`, the melting point turned out to be 156 °C.

Molecule `N#Cc1cccc2c(N)c([N+](=O)[O-])ccc12` registered a melting point of 260 to 262 °C.

Molecule `Cc1nccn1-c1cnc2[nH]cc(C(=O)C(C)(C)C)c2n1` had a melting point of 247 to 249 °C.

Molecule `CC1(C)CC(Br)c2cc(C#N)ccc2O1` (stereo not drawn) came in with a melting point of 94 to 95 °C.

`Cc1cc(OCC(=O)NCCO[N+](=O)[O-])no1` returned a melting point of 93 to 94 °C.

For `COC(=O)c1ccc(C(=O)Nc2c(C)c(C)c3c(c2C)C(c2ccc(C(C)C)cc2)C(C)(C)O3)cc1` (stereo not drawn), the melting point was in the range of 220 to 223 °C.

Molecule `CCC#CCCOc1ccc(C=O)cc1OC` came in with a melting point of 80 to 81 °C.

In the case of `OCc1cn(-c2ccc(F)c(Br)c2)cn1`, the melting point lay within 151 to 152 °C.

The molecule `CC(=O)C(=CNc1ccc(C2=NNC(=O)CC2)cc1)C(C)=O` yielded a melting point of 218 to 222 °C.

Take `CCCc1cc(C(O)=S)cc(N)c1C(=O)c1ccccc1`: the melting point lay within 124 to 126 °C.

With `N#Cc1ccc2c(c1)Sc1ccccc1O2`, the melting point worked out at 215 °C.

Turning to `C[C@@H]1SC(N)=N[C@H]1Cc1ccccc1`, the melting point turned out to be 89 °C.

In turn, `COc1cccc(CNC(=O)c2nc3cccc(OCCN4CCC(C(=O)O)CC4)c3c(=O)[nH]2)c1` showed a melting point of 127 to 130 °C.

`COc1ccc(CNc2nnc(-n3ccc(=O)cc3)c3ccc(C#N)cc23)cc1Cl` came in with a melting point of 218 to 219 °C.

Turning to `CCN(CC)c1ccc(-n2c(CC(=O)O)c(C(=O)O)c3cc(Oc4ccc(Cl)cc4)ccc32)cc1`, the melting point was found to be 210 °C.

In the case of `Cc1coc2c1C(=O)CC(c1ccco1)C2` (stereo not drawn), the melting point was in the range of 60 to 61 °C.

Molecule `N#CCc1cc(O)cc2cc(-c3ccc(O)c(F)c3)oc12` had a melting point of 242 to 244 °C.

In the case of `O=C(O)C(Cc1ccccc1)NC(=O)N1CCc2cc(S(=O)(=O)N3CCN(c4cccc(Cl)c4)CC3)ccc21` (stereo not drawn), the melting point is 134 to 135 °C.

Take `N#Cc1cccc2c1NC(=O)C2c1ncnc2c1cnn2C1CCCC1` (stereo not drawn): the melting point lay in the range of 327 to 332 °C.

The molecule `COc1cc(OC)cc(C(=CC#N)c2ccc(OC)c(N)c2)c1` yielded a melting point of 93 to 95 °C.

`O=c1ccc(C(F)(F)F)cn1Cc1c(Cl)cccc1Cl` gave a melting point of 74 to 76 °C.

`Cc1ccc2c(c1)C=C(c1ccc(OCCN3CCCC3)cc1)S2=O` (stereo not drawn) gave a melting point of 150 to 151 °C.

With `CC1CCn2nc(S(=O)(=O)Nc3c(Cl)cccc3Cl)nc2N1` (stereo not drawn), the melting point lay in the range of 230 to 235 °C.

`Cc1cc(NC(=O)Cc2ccccc2C(F)(F)F)cc(C)c1S(=O)(=O)C[N+](=O)[O-]` gave a melting point of 203 to 204 °C.

Molecule `CS(=O)(=O)c1ccc(-c2cc(C(=O)O)sc2-c2ccc(F)cc2)cc1` returned a melting point of 264 °C.

`OCc1ccc(C2=CCCCC2)cc1` displayed a melting point of 70 to 71 °C.

The molecule `Cc1nc(-n2ccc(O)cc2=O)sc1C(=O)NCCc1ccc(F)cc1` displayed a melting point of 225 to 227 °C.

The molecule `CCNC1CCN(c2c(F)c(N)c3c(=O)c(C(=O)O)cn(C4CC4)c3c2OC)CC1C` (stereo not drawn) yielded a melting point of 230 to 232 °C.

`Cc1cccc2c(=O)c3ccccc3ccc12` displayed a melting point of 77 to 80 °C.

Molecule `COCC(=O)COc1c([N+](=O)[O-])ccc(F)c1F` had a melting point of 39 to 42 °C.

The molecule `COC(=O)c1cc(CCCc2coc3nc(N)nc(N)c23)cs1` displayed a melting point of 156 to 157 °C.

`CC1Cc2c(-n3nc(C#N)c(=O)[nH]c3=O)ccc(Cl)c2O1` (stereo not drawn) returned a melting point of 244 to 245 °C.

`O=C(O)c1ccc(OCc2ccccc2)c(Cl)c1` gave a melting point of 211 to 213 °C.

`O=C(Nc1ccc2oc(N3CCOCC3)cc(=O)c2c1)OCc1ccccc1` displayed a melting point of 245 to 250 °C.

`Cc1cc(N)n(C)c2nc(N)nc(=O)c1-2`: the melting point was > 300 °C.

In the case of `O=C1NCc2ccccc2N1C1CCNCC1`, the melting point fell in the range of 153 to 155 °C.

In the case of `COc1cc(OC)c2cnnc(Cl)c2c1`, the melting point is 167 °C.

Molecule `CC(C)OC(=O)Nc1cc(C2CC2)on1` gave a melting point of 64.5 to 65.5 °C.

With `Cc1cccc(-c2[nH]c(C(C)C)nc2-c2cccc(-c3ccc(OC(F)(F)F)cc3)c2)n1`, the melting point is 120 to 122 °C.

With `CSCC(C)(C)N(C(=O)c1c(I)cccc1C(N)=O)c1ccc(Cn2nnn(-c3ccc(C(F)(F)F)cc3)c2=O)cc1C`, the melting point fell in the range of 83 to 87 °C.

The molecule `CCCCCCCCCCc1c(C(=O)O)sc2c1sc1c3sc(C(=O)O)c(CCCCCCCCCC)c3sc21` gave a melting point of 316 to 318 °C.

In the case of `CC(C)(C)OC(=O)N1CCC2(CC1)CC(c1ccc(C(C)(C)C)cc1)=NO2`, the melting point lay within 172 to 173 °C.

The molecule `Fc1nc(NCc2cccnc2)c2nc[nH]c2n1` showed a melting point of 218 to 220 °C.

Molecule `COC(=O)c1nc(-c2ccccc2)n2c1CN=C(c1ccccc1F)c1cc(Cl)ccc1-2` displayed a melting point of 208 to 209 °C.

Molecule `O=[N+]([O-])c1ccc(CSCc2c[nH]cn2)cc1` came in with a melting point of 88 °C.
